Earlier results as cited in article PMC8065136, “Elevated expression of the adhesion GPCR ADGRL4/ELTD1 promotes endothelial sprouting angiogenesis without activating canonical GPCR signalling” (Scientific Reports, 2021).

Tested on: GPR97
Experimental: Another possible explanation for the lack of detectable signalling pathways is that other means of activation need to be employed to activate the receptor. Among them mechanical forces or incubation of the full length receptor with a ligand that has not yet been identified. […] Examples include beclomethasone dipropionate on GPR97[45] or Gedunin- and Khivorin-derivatives on GPR56 and GPR114[46]. It is possible that endogenous small molecules could activate ADGRL4/ELTD1 irrespective of the existence of a functional tethered agoni ...

**Q.** For `CCC(=O)OCC(=O)[C@@]1(OC(=O)CC)[C@@H](C)C[C@H]2[C@@H]3CCC4=CC(=O)C=C[C@]4(C)[C@@]3(Cl)[C@@H](O)C[C@@]21C` [beclomethasone dipropionate], which “Activation of aGPCR” value is on record?
**A.** activate
